Source: patent US20250288584A1, “COMBINATIONS COMPRISING POSITIVE ALLOSTERIC MODULATORS OR ORTHOSTERIC AGONISTS OF METABOTROPIC GLUTAMATERGIC RECEPTOR SUBTYPE 2 AND THEIR USE” (JANSSEN PHARMACEUTICA NV, priority 2014, published 2025)
Where “and” joins values, the source holds several entries; their conditions need not be identical. Identical values can stand only once. Like-named read-outs stand apart in the source and are kept apart here.

What was measured:
Type in all cases: in vivo, mice
[1] = Minimal motor impairment (rotarod)
[2] = system: 6 Hz (32 mA) psychomotor seizures; test: 6 Hz psychomotor seizure test, 32 mA (incl. TPE determination)
Method in brief: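 Mice dosed s.c. into a loose skin fold (one compound p.o.) at 0.01 mL/g body weight. Focal seizures induced by corneal stimulation (6 Hz, 0.2 msec rectangular pulse, 3 sec) at 32 mA; absence of stun, forelimb clonus, vibrissae twitching and Straub-tail scored as protection. TPE determined in this assay; ED50 from evenly spaced doses.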

[3] = Plasma and brain levels (pK/pD analysis); conditions: for concentration at 0.25 h / concentration at 0.5 h / concentration at 1 h / concentration at 2 h / concentration at 4 h: mouse, plasma, subcutaneous
Method: In various tests, animals were sacrificed following testing, and trunk blood and/or brain tissue (whole brains) was collected for quantification of drug levels. Immediately after testing, animals were decapitated and trunk blood was collected into a BD Vacutainer® tube containing K2EDTA and chilled on ice until centrifugation. Following centrifugation (13000-18000 rpm, 5-7 min), the plasma was removed and transferred to a labeled microcentrifuge tube and stored at −80° C. For brain tissue collection, brains were removed immediately following decapitation and flash frozen. The frozen sample was placed in a labeled centrifuge tube and stored at −80° C.
In addition to recording the efficacy and toxicity data for these compounds alone or in combination, both plasma and brain samples were collected from each of the groups for pharmacokinetic/pharmacokinetic analysis.

[4] = 10 mg/kg s.c., 0.25 h, 32 mA group
[5] = 20 mg/kg s.c., 0.25 h, 32 mA group
[6] = 10 mg/kg, 10 mg/kg s.c., 32 mA group, read-out: Co. No. 25-a mean plasma levels
[7] = 20 mg/kg, 20 mg/kg s.c., 32 mA group, read-out: Co. No. 25-a mean plasma levels

SMILES: CCCCn1ccc(N2CCC(c3ccc(F)cc3F)CC2)c(Cl)c1=O [Co. No. 25-a]
- # rotarod motor impairment/# tested ([1]; 1 mg/kg s.c., 0.25 h, 32 mA group): 0/8
- # rotarod motor impairment/# tested ([1]; 5 mg/kg s.c., 0.25 h, 32 mA group): 0/8
- # rotarod motor impairment/# tested ([1]; 5 mg/kg s.c., 0.25 h, 44 mA group): 1/8
- # rotarod motor impairment/# tested [1, 4]: 0/4 and 0/8
- # rotarod motor impairment/# tested ([1]; 10 mg/kg s.c., 0.25 h, 44 mA group): 0/8
- # rotarod motor impairment/# tested ([1]; 10 mg/kg s.c., 0.5 h, 32 mA group): 0/4
- # rotarod motor impairment/# tested ([1]; 10 mg/kg s.c., 1 h, 32 mA group): 1/4
- # rotarod motor impairment/# tested ([1]; 10 mg/kg s.c., 2 h, 32 mA group): 0/4
- # rotarod motor impairment/# tested ([1]; 10 mg/kg s.c., 4 h, 32 mA group): 0/4
- # rotarod motor impairment/# tested ([1]; 15 mg/kg s.c., 0.25 h, 32 mA group): 0/8
- # rotarod motor impairment/# tested [1, 5]: 0/4 and 0/8
- # rotarod motor impairment/# tested ([1]; 20 mg/kg s.c., 0.25 h, 44 mA group): 0/8
- # rotarod motor impairment/# tested ([1]; 20 mg/kg s.c., 0.5 h, 32 mA group): 1/4
- # rotarod motor impairment/# tested ([1]; 20 mg/kg s.c., 1 h, 32 mA group): 1/4
- # rotarod motor impairment/# tested ([1]; 20 mg/kg s.c., 2 h, 32 mA group): 0/4
- # rotarod motor impairment/# tested ([1]; 20 mg/kg s.c., 4 h, 32 mA group): 1/4
- # rotarod motor impairment/# tested ([1]; 30 mg/kg s.c., 0.25 h, 44 mA group): 0/8
- # rotarod motor impairment/# tested ([1]; 40 mg/kg s.c., 0.25 h, 44 mA group): 0/8
- # protected/# tested ([2]; 1 mg/kg s.c., 0.25 h): 1/8
- # protected/# tested ([2]; 5 mg/kg s.c., 0.25 h): 4/8
- # protected/# tested ([2]; 10 mg/kg s.c., 0.25 h): 2/4 and 4/8
- # protected/# tested ([2]; 10 mg/kg s.c., 0.5 h): 1/4
- # protected/# tested ([2]; 10 mg/kg s.c., 1 h): 1/4
- # protected/# tested ([2]; 10 mg/kg s.c., 2 h): 0/4
- # protected/# tested ([2]; 10 mg/kg s.c., 4 h): 0/4
- # protected/# tested ([2]; 15 mg/kg s.c., 0.25 h): 3/8
- # protected/# tested ([2]; 20 mg/kg s.c., 0.25 h): 4/4 and 8/8
- # protected/# tested ([2]; 20 mg/kg s.c., 0.5 h): 3/4
- # protected/# tested ([2]; 20 mg/kg s.c., 1 h): 4/4
- # protected/# tested ([2]; 20 mg/kg s.c., 2 h): 1/4
- # protected/# tested ([2]; 20 mg/kg s.c., 4 h): 1/4
- ED50 ([2]; Mus musculus, sc, at TPE, read-out: ED50 (95% CI) 32 mA): 7.7 mg/kg
- ED50 (95% CI) 32 mA ([2]; s.c., at TPE): ED50 (95% CI): 7.7 mg/kg (2.3 to 18.4)
- Co. No. 25-a mean plasma levels (ng/mL) [3, 4]: 6,113 ng/mL
- Co. No. 25-a mean plasma levels (ng/mL) [3, 5]: 5,570 ng/mL
- concentration at 0.25 h ([3]; 1 mg/kg, 1 mg/kg s.c., 0.25 h, 32 mA group, read-out: Co. No. 25-a mean plasma levels): 0.466 µg/mL
- concentration at 0.25 h ([3]; 5 mg/kg, 5 mg/kg s.c., 0.25 h, 32 mA group, read-out: Co. No. 25-a mean plasma levels): 2.56 µg/mL
- concentration at 0.25 h ([3]; 5 mg/kg, 5 mg/kg s.c., 44 mA group, read-out: Co. No. 25-a mean plasma levels): 1.43 µg/mL
- concentration at 0.25 h ([3]; 10 mg/kg, 10 mg/kg s.c., 0.25 h, 32 mA group, read-out: Co. No. 25-a mean plasma levels): 11 µg/mL
- concentration at 0.25 h ([3]; 10 mg/kg, 10 mg/kg s.c., 0.25 h, 32 mA group, read-out: Co. No. 25-a mean plasma levels, statistical outlier removed): 11 µg/mL
- concentration at 0.5 h [3, 6]: 3.33 µg/mL
- concentration at 1 h [3, 6]: 0.7 µg/mL
- concentration at 2 h [3, 6]: 0.256 µg/mL
- concentration at 4 h [3, 6]: 0.04 µg/mL
- concentration at 0.25 h ([3]; 10 mg/kg, 10 mg/kg s.c., 44 mA group, read-out: Co. No. 25-a mean plasma levels): 4.34 µg/mL
- concentration at 0.25 h ([3]; 10 mg/kg, 10 mg/kg s.c., 44 mA group, read-out: Co. No. 25-a mean plasma levels, statistical outlier removed): 4.34 µg/mL
- concentration at 0.25 h ([3]; 15 mg/kg, 15 mg/kg s.c., 0.25 h, 32 mA group, read-out: Co. No. 25-a mean plasma levels): 1.2 µg/mL
- concentration at 0.25 h ([3]; 20 mg/kg, 20 mg/kg s.c., 0.25 h, 32 mA group, read-out: Co. No. 25-a mean plasma levels): 4.09 µg/mL
- concentration at 0.5 h [3, 7]: 2.8 µg/mL
- concentration at 1 h [3, 7]: 1.77 µg/mL
- concentration at 2 h [3, 7]: 0.618 µg/mL
- concentration at 4 h [3, 7]: 0.028 µg/mL
- concentration at 0.25 h ([3]; 20 mg/kg, 20 mg/kg s.c., 44 mA group, read-out: Co. No. 25-a mean plasma levels): 3.37 µg/mL
- concentration at 0.25 h ([3]; 30 mg/kg, 30 mg/kg s.c., 44 mA group, read-out: Co. No. 25-a mean plasma levels): 7.22 µg/mL
- concentration at 0.25 h ([3]; 40 mg/kg, 40 mg/kg s.c., 44 mA group, read-out: Co. No. 25-a mean plasma levels): 6.26 µg/mL
